Test results taken from patent publication US7049444B2, “3-azabicyclo[3.1.0]hexane derivatives useful in therapy” (Pfizer Inc., priority 1998, dated 2006).
Where a name gives a salt, the structure may show the parent alone.

Row | melting point [°C] | Compound
1 | 117 to 118 | CC1(c2cccc(NS(C)(=O)=O)c2)C2CN(Cc3ccccc3)CC21 (stereo not drawn) [Example 22, N-[3-(3-Benzyl-6-methyl-3-azabicyclo[3.1.0]hex-6-yl)phenyl]methanesulfonamide]
2 | 162 to 164 | CC1(c2cccc(NS(C)(=O)=O)c2)C2CN(CCCc3ccccc3)CC21 (stereo not drawn) (as salt: tartrate)
3 | 159 to 161 | CC1(c2cccc(NS(C)(=O)=O)c2)C2CN(CCc3ccc(C(F)(F)F)cc3)CC21 (stereo not drawn)
4 | 212 to 214 | CC1(c2cccc(NS(C)(=O)=O)c2)C2CN(CCCc3ccccc3)CC21 (stereo not drawn) (as salt: hydrochloride)
5 | 166 to 168 | CC1(c2cccc(NS(C)(=O)=O)c2)C2CN(CCCc3ccccc3)CC21 (stereo not drawn) (as salt: benzenesulfonate)
6 | 182 to 184 | CC1(c2cccc(NS(C)(=O)=O)c2)C2CN(CCCc3ccccc3)CC21 (stereo not drawn) (as salt: toluenesulfonate)
